Measured values as given in patent US8110687B2, “Bicyclic compounds with kinase inhibitory activity” (Millennium Pharmaceuticals, Inc., priority 2005, dated 2012).

The compounds below were run on phospho-ERK formation (Raf kinase activity) in A375 cells (assay: Phospho-ERK ELISA assay). Settings: Homo sapiens, A-375, 3 h, 3 hours with inhibitor, read-out: IC50, inhibition of the formation of phospho-ERK.
Assay type: cell-based
Procedure: Inhibition of Raf kinase activity in whole cell systems can be assessed by determining the decrease in phosphorylation of Raf kinase substrates. Any known Raf kinase substrate can be used to measure inhibition of Raf kinase activity in a whole cell system.
Medium was removed, and cells were incubated with Raf kinase inhibitors for 3 hours at 37° C. Medium was removed, and cells were fixed with 4% paraformaldehyde for 15 minutes at room temperature.
Methanol was added for 15 min. Cells were removed and blocked with 10% sheep serum and 1% BSA in PBS overnight at 4° C. Cells were incubated with anti-p44/42MAPK antibody (1:100, Cell Signaling Technologies, #9101L) (20 μL/well) for one hour at room temperature. After washing with PBS three times, cells were stained with anti-rabbit horseradish peroxidase-linked antibody from donkey (1:100, Amersham Bioscience #NA934V) for 1 hour at room temperature. Cells were washed three times with 0.5% Tween-20 in PBS and twice with PBS. 3,3′, 5,5′-Tetramethylbenzidine (TMB) liquid substrate system (Sigma, #T8665) (50 μL/well) was added, and cells were incubated for 30-45 minutes at room temperature. Optical density was read at 650 nm. Cells were then washed 3-5 times with PBS to remove color solution. Results were normalized for the protein content in each well using a BCA protein assay kit (Pierce).

Question: For `CN1Cc2ccc(Oc3ccnc(C4=NCCN4)c3)cc2CC1C(=O)Nc1ccc(Cl)c(C(F)(F)F)c1` (centres unmarked) [Compound I-11, N-[4-Chloro-3-(trifluoromethyl)phenyl]-6-{[2-(4,5-dihydro-1H-imidazol-2-yl)pyridin-4-yl]oxy}-2-methyl-1,2,3,4-tetrahydroisoquinoline-3-carboxamide], which IC50 is on record?
Answer: ≤ 25 µM

Question: `O=C(Nc1ccc(Cl)c(C(F)(F)F)c1)C1CCc2cccc(Oc3ccnc(C4=NCCN4)c3)c2C1` (centres unmarked) [Compound I-21, N-[4-chloro-3-(trifluoromethyl)phenyl]-8-{[2-(4,5-dihydro-1H-imidazol-2-yl)pyridin-4-yl]oxy}-1,2,3,4-tetrahydronaphthalene-2-carboxamide] was tested. Which IC50 did it give?
Answer: ≤ 25 µM

Question: `CNC(=O)c1cc(Oc2ccc3c(c2)CC(C(=O)Nc2cccc(C(C)(C)C)c2)CC3)ccn1` (centres unmarked) [Compound I-23, 4-[(7-{[(3-tert-butylphenyl)amino]carbonyl}-5,6,7,8-tetrahydronaphthalen-2-yl)oxy]-N-methylpyridine-2-carboxamide] was tested. Which IC50 did it give?
Answer: ≤ 25 µM

Question: Which IC50 does the source give for `CNC(=O)c1cc(Oc2ccc3c(c2)CC(C(=O)Nc2ccc(CN)c(C(F)(F)F)c2)CC3)ccn1` (centres unmarked) [Compound I-28, 4-{[7-({[4-(aminomethyl)-3-(trifluoromethyl)phenyl]amino}carbonyl)-5,6,7,8-tetrahydronaphthalen-2-yl]oxy}-N-methylpyridine-2-carboxamide] here?
Answer: ≤ 25 µM

Question: Which IC50 does the source give for `CNC(=O)c1cc(Oc2ccc3c(c2)CC(C(=O)Nc2ccc(CCN)cc2)CC3)ccn1` (centres unmarked) [Compound I-29, 4-{[7-({[4-(2-aminoethyl)phenyl]amino}carbonyl)-5,6,7,8-tetrahydronaphthalen-2-yl]oxy}-N-methylpyridine-2-carboxamide] here?
Answer: ≤ 25 µM

Question: With `O=C(Nc1ccc(Cl)c(C(F)(F)F)c1)c1cc2cc(Oc3ccnc(C4=NCCN4)c3)ccc2cn1` [Compound I-35, N-[4-chloro-3-(trifluoromethyl)phenyl]-6-{[2-(4,5-dihydro-1H-imidazol-2-yl)pyridin-4-yl]oxy}isoquinoline-3-carboxamide] as the compound, how does the IC50 read?
Answer: ≤ 25 µM

Question: `CNC(=O)c1cc(Oc2ccc3c(c2)CC(C(=O)Nc2ccc(CN)cc2)CC3)ccn1` (centres unmarked) [Compound I-42, 4-{[7-({[4-(aminomethyl)phenyl]amino}carbonyl)-5,6,7,8-tetrahydronaphthalen-2-yl]oxy}-N-methylpyridine-2-carboxamide] was tested. Which IC50 did it give?
Answer: ≤ 25 µM

Question: `O=C(Nc1ccc(Cl)c(C(F)(F)F)c1)c1ccc2ccc(Oc3ccnc(C4=NCCN4)c3)cc2n1` [Compound I-45, N-[4-chloro-3-(trifluoromethyl)phenyl]-7-{[2-(4,5-dihydro-1H-imidazol-2-yl)pyridin-4-yl]oxy}quinoline-2-carboxamide] was tested. Which IC50 did it give?
Answer: ≤ 25 µM

Question: How did the IC50 turn out when `O=C(Nc1ccc(Cl)c(C(F)(F)F)c1)c1ccc2ccc(Oc3ccnc(C4=NCCN4)c3)cc2c1` [Compound I-46, N-[4-chloro-3-(trifluoromethyl)phenyl]-7-{[2-(4,5-dihydro-1H-imidazol-2-yl)pyridin-4-yl]oxy}-2-naphthamide] was run?
Answer: ≤ 25 µM

Question: `O=C(Nc1cc(OC2CCNCC2)cc(C(F)(F)F)c1)c1ccc2ccc(Oc3ccnc(C4=NCCN4)c3)cc2c1` [Compound I-48, 7-{[2-(4,5-dihydro-1H-imidazol-2-yl)pyridin-4-yl]oxy}-N-[3-(piperidin-4-yloxy)-5-(trifluoromethyl)phenyl]-2-naphthamide] was tested. Which IC50 did it give?
Answer: ≤ 25 µM

Question: Which IC50 does the source give for `CC(C)(C)c1cccc(NC(=O)c2ccc3ccc(Oc4ccnc(C5=NCCN5)c4)cc3n2)c1` [Compound I-50, N-(3-tert-butylphenyl)-7-{[2-(4,5-dihydro-1H-imidazol-2-yl)pyridin-4-yl]oxy}quinoline-2-carboxamide] here?
Answer: ≤ 25 µM

Question: How did the IC50 turn out when `CNC(=O)c1cc(Oc2ccc3c(c2)CC(C(=O)Nc2cccc(CN)c2)CC3)ccn1` (centres unmarked) [Compound I-51, 4-{[7-({[3-(aminomethyl)phenyl]amino}carbonyl)-5,6,7,8-tetrahydronaphthalen-2-yl]oxy}-N-methylpyridine-2-carboxamide] was run?
Answer: ≤ 25 µM

Question: With `O=C(Nc1ccc(Cl)c(C(F)(F)F)c1)C1Cc2cc(Oc3ccnc(C4=NCCN4)c3)ccc2CN1` (centres unmarked) [Compound I-54, N-[4-chloro-3-(trifluoromethyl)phenyl]-6-{[2-(4,5-dihydro-1H-imidazol-2-yl)pyridin-4-yl]oxy}-1,2,3,4-tetrahydroisoquinoline-3-carboxamide] as the compound, how does the IC50 read?
Answer: ≤ 25 µM

Question: How did the IC50 turn out when `CC(C)(C)c1cccc(NC(=O)c2ccc3ccc(Oc4ccnc(C(=N)N5CCCC5)c4)cc3c2)c1` [Compound I-93, N-(3-tert-butylphenyl)-7-({2-[imino(pyrrolidin-1-yl)methyl]pyridin-4-yl}oxy)-2-naphthamide] was run?
Answer: ≤ 25 µM

Question: With `CC(C)(C)c1cccc(NC(=O)c2ccc3ccc(Oc4ccnc(C(=N)N5CCOCC5)c4)cc3c2)c1` [Compound I-99, N-(3-tert-butylphenyl)-7-({2-[imino(morpholin-4-yl)methyl]pyridin-4-yl}oxy)-2-naphthamide] as the compound, how does the IC50 read?
Answer: ≤ 25 µM

Question: Which IC50 does the source give for `CNC(=O)c1cc(Oc2ccc3c(c2)CC(C(=O)Nc2ccc(CN4CCCC4)c(C(F)(F)F)c2)CC3)ccn1` (centres unmarked) [Compound I-129, N-methyl-4-{[7-({[4-(pyrrolidin-1-ylmethyl)-3-(trifluoromethyl)phenyl]amino}carbonyl)-5,6,7,8-tetrahydronaphthalen-2-yl]oxy}pyridine-2-carboxamide] here?
Answer: ≤ 25 µM

Question: For `CN(C)CC(=O)Nc1cc(Oc2ccc3ccc(C(=O)Nc4ccc(Cl)c(C(F)(F)F)c4)cc3c2)ccn1` [Compound I-138, N-[4-chloro-3-(trifluoromethyl)phenyl]-7-[(2-{[(dimethylamino)acetyl]amino}pyridin-4-yl)oxy]-2-naphthamide], which IC50 is on record?
Answer: ≤ 25 µM

Question: How did the IC50 turn out when `Nc1cc(Oc2ccc3ccc(C(=O)Nc4cc(OCCN5CCCC5)cc(C(F)(F)F)c4)cc3c2)ccn1` [Compound I-142, 7-[(2-aminopyridin-4-yl)oxy]-N-[3-(2-pyrrolidin-1-ylethoxy)-5-(trifluoromethyl)phenyl]-2-naphthamide] was run?
Answer: ≤ 25 µM

Question: `CC(C)(C)c1cccc(NC(=O)C2CCc3ccc(Oc4ccnc(-c5nc(C(=O)O)c[nH]5)c4)cc3C2)c1` (centres unmarked) [Compound I-155, 2-{4-[(7-{[(3-tert-Butylphenyl)amino]carbonyl}-5,6,7,8-tetrahydronaphthalen-2-yl)oxy]pyridin-2-yl}-1H-imidazole-4-carboxylic acid] was tested. Which IC50 did it give?
Answer: ≤ 25 µM

Question: How did the IC50 turn out when `N#Cc1ccc(NC(=O)c2ccc3ccc(Oc4ccnc(N)c4)cc3c2)cc1C(F)(F)F` [Compound I-158, 7-[(2-aminopyridin-4-yl)oxy]-N-[4-cyano-3-(trifluoromethyl)phenyl]-2-naphthamide] was run?
Answer: ≤ 25 µM

Question: Which IC50 does the source give for `CNC(=O)c1cc(Oc2ccc3ncc(C(=O)Nc4ccc(CN)c(C(F)(F)F)c4)cc3c2)ccn1` [Compound I-161, N-[4-(aminomethyl)-3-(trifluoromethyl)phenyl]-6-({2-[(methylamino)carbonyl]pyridin-4-yl}oxy)quinoline-3-carboxamide] here?
Answer: ≤ 25 µM

Question: With `Nc1cc(Oc2ccc3ccc(C(=O)Nc4ccc(Cl)c(C(F)(F)F)c4)cc3c2)ccn1` [Compound I-162, 7-[(2-aminopyridin-4-yl)oxy]-N-[4-chloro-3-(trifluoromethyl)phenyl]-2-naphthamide] as the compound, how does the IC50 read?
Answer: ≤ 25 µM

Question: `COC(=O)NCc1cc(Oc2ccc3c(c2)CC(C(=O)Nc2cc(CN)cc(C(F)(F)F)c2)CC3)ccn1` (centres unmarked) [Compound I-192, methyl [(4-{[7-({[3-(aminomethyl)-5-(trifluoromethyl)phenyl]amino}carbonyl)-5,6,7,8-tetrahydronaphthalen-2-yl]oxy}pyridin-2-yl)methyl]carbamate] was tested. Which IC50 did it give?
Answer: ≤ 25 µM

Question: How did the IC50 turn out when `CC(C)(C)c1cccc(NC(=O)C2CCc3ccc(Oc4ccnc(C(=N)N5CCCC5)c4)cc3C2)c1` (centres unmarked) [Compound I-194, N-(3-tert-butylphenyl)-7-({2-[imino(pyrrolidin-1-yl)methyl]pyridin-4-yl}oxy)-1,2,3,4-tetraydronaphthalene-2-carboxamide] was run?
Answer: ≤ 25 µM

Question: How did the IC50 turn out when `CC(=O)NCc1cc(Oc2ccc3c(c2)CC(C(=O)Nc2cc(CN)cc(C(F)(F)F)c2)CC3)ccn1` (centres unmarked) [Compound I-203, 7-({2-[(acetylamino)methyl]pyridin-4-yl}oxy)-N-[3-(aminomethyl)-5-(trifluoromethyl)phenyl]-1,2,3,4-tetrahydronaphthalene-2-carboxamide] was run?
Answer: ≤ 25 µM

Question: With `NCc1cc(NC(=O)C2CCc3ccc(Oc4ccnc(-n5ccnc5)c4)cc3C2)cc(C(F)(F)F)c1` (centres unmarked) [Compound I-205, N-[3-(aminomethyl)-5-(trifluoromethyl)phenyl]-7-{[2-(1H-imidazol-1-yl)pyridin-4-yl]oxy}-1,2,3,4-tetrahydronaphthalene-2-carboxamide] as the compound, how does the IC50 read?
Answer: ≤ 25 µM

Question: With `NCc1cc(NC(=O)C2CCc3ccc(Oc4ccnc(-c5cnco5)c4)cc3C2)cc(C(F)(F)F)c1` (centres unmarked) [Compound I-210, N-[3-(aminomethyl)-5-(trifluoromethyl)phenyl]-7-{[2-(1,3-oxazol-5-yl)pyridin-4-yl]oxy}-1,2,3,4-tetrahydronaphthalene-2-carboxamide] as the compound, how does the IC50 read?
Answer: ≤ 25 µM

Question: With `CC(C)NC(=O)c1cc(Oc2ccc3c(c2)CC(C(=O)Nc2cc(CN)cc(C(F)(F)F)c2)CC3)ccn1` (centres unmarked) [Compound I-229, 4-{[7-({[3-(aminomethyl)-5-(trifluoromethyl)phenyl]amino}carbonyl)-5,6,7,8-tetrahydronaphthalen-2-yl]oxy}-N-isopropylpyridine-2-carboxamide] as the compound, how does the IC50 read?
Answer: ≤ 25 µM

Question: With `CC(C)(C)c1cccc(NC(=O)C2CCc3ccc(Oc4ccnc(N)c4)cc3C2)c1` (centres unmarked) [Compound I-235, 7-[(2-aminopyridin-4-yl)oxy]-N-(3-tert-butylphenyl)-1,2,3,4-tetrahydronaphthalene-2-carboxamide] as the compound, how does the IC50 read?
Answer: ≤ 25 µM
